Reference: patent publication EP4722195A1, “PH-SENSITIVE CATIONIC LIPID AND LIPID NANOPARTICLES” (National University Corporation Hokkaido University, priority 2023, dated 2024)

Tests used:
spleen = test: Fluc activity in the spleen of mice administered Fluc mRNA-loaded lipid nanoparticles; format: in vivo, BALB/c mice; details: Example 22, Fig. 1; TxT/DSPC/chol/PEG-DMG=50/15/35/1.5 (mol%); 0.1 mg mRNA/kg intravenous; six hours after administration; comparison among TxT lipids
Method: (§1) Lipid nanoparticles were administered to mice by intravenous injection into the tail vein using a 27G needle. Unless otherwise specified, BALB/c mice (4 to 5 weeks old, female) were used.
(§2) First, BALB/c mice (female, 4 weeks old) were intravenously injected with lipid nanoparticles encapsulating Fluc mRNA (Fluc mRNA-loaded lipid nanoparticles) at a dose of 0.1 mg mRNA/kg. Six hours after intravenous injection, the mice were euthanized, each tissue was collected, frozen in liquid nitrogen, and stored at -80°C. The tissues were homogenized in passive lysis buffer (manufactured by Promega) using a bead-type cell disruptor (Micro Smash MS-100R, manufactured by TOMY Seiko). Tissue debris was removed by centrifugation, and the supernatant was collected. Fluc activity in the supernatant was measured using the Luciferase Assay System (E1500, manufactured by Promega) according to the manufacturer's protocol. Luminescence was measured using a luminometer (Luminescencer-PSN, manufactured by ATTO). Protein concentration was determined using a commercially available assay kit (BCA Protein Assay Kit, manufactured by Pierce). Fluc activity was expressed as relative light units (RLU) per mg of protein. […]

[1] = system: proprotein convertase subtilisin/kexin type 9 (PCSK9); test: PCSK9-targeted genome editing in mice, serum PCSK9 (ELISA); format: in vivo, Balb/c mice; details: Example 34, Fig. 13
Method: Specifically, an RNA solution was first prepared to contain Cas9-mRNA (TriLink, 5moU-modified) and gRNA targeting proprotein convertase subtilisin/kexin type 9 (PCSK9) (SEQ ID NO: 3) at a mass ratio of 1:2 (N/P = 6.0). Using this RNA solution, in the same manner as Example 32, lipid nanoparticles encapsulating Cas9-mRNA and PCSK9-gRNA and having a composition of TxT-5-SA14/DSPC/chol/PEG-DMG = 50/3/47/1.5 (mol%) were prepared (lipid nanoparticles for PCSK9-targeted genome editing). […]
Subsequently, the prepared lipid nanoparticles for PCSK9-targeted genome editing were administered via tail vein injection to female Balb/c mice (4 weeks old) at doses of 0.3, 1.0, and 2.0 mg RNA/kg. […] The collected blood was allowed to stand at room temperature for 1 hour, followed by centrifugation at 4°C, 1,000 × g for 10 minutes. The supernatant was collected to obtain serum. The concentration of PCSK9 in the serum was measured using a commercially available ELISA kit (Mouse/Rat PCSK9 ELISA Kit, CircuLex). Calibration samples were prepared by serial dilution from 6 ng/mL to obtain solutions of 3, 1.5, 0.75, 0.375, 0.188, and 0.094 ng/mL, each in 300 µL volumes. Serum samples were diluted 100-fold. […] Finally, 100 µL of Stop Solution (CircuLex) was added, and absorbance at 450 nm and 540 nm was measured using a spectrophotometer (Varioskan Lux, Thermo Fisher Scientific).

various tissues = test: Fluc activity in various tissues of mice administered Fluc mRNA-loaded lipid nanoparticles; format: in vivo, BALB/c mice; details: Example 23, Figs. 2B to 2E; TxT-5-5A16/DSPC/chol/PEG-DMG=50/X/50-X/1.5 (mol%); 0.1 mg mRNA/kg; six hours
Method: as §1, §2

CCCCCCC(CCCC)CNC(=O)CCCC(=O)OCC(COC(=O)CCCC(=O)NCC(CCCC)CCCCCC)(COC(=O)CCCC(=O)NCC(CCCC)CCCCCC)NC(=O)CCN1CCCCC1 (stereo not drawn) [TxT-5-5A12β, 2-(((5-((2-butyloctyl)amino)-5-oxopentanoyl)oxy)methyl)-2-(3-(piperidin-1-yl)propanamido)propane-1,3-diyl bis(5-((2-butyloctyl)amino)-5-oxopentanoate)]
Fluc activity in the spleen (spleen): highest Fluc activity in the spleen

CCCCCCCN(CCCCCCC)C(=O)CCCC(=O)OCC(COC(=O)CCCC(=O)N(CCCCCCC)CCCCCCC)(COC(=O)CCCC(=O)N(CCCCCCC)CCCCCCC)NC(=O)CCN1CCCCC1 [TxT-5-5A14, 2-(((5-(diheptylamino)-5-oxopentanoyl)oxy)methyl)-2-(3-(piperidin-1-yl)propanamido)propane-1,3-diyl bis(5-(diheptylamino)-5-oxopentanoate)]
PCSK9 knockout efficiency versus dose ([1]; 0.3, 1.0, and 2.0 mg RNA/kg): dose-dependent increase in PCSK9 knockout efficiency
PCSK9 knockout activity ([1]; dose of 2.0 mg RNA/kg tail vein, serum PCSK9 ten days after administration, N = 3 to 6): no less than 90%

CCCCCCCCN(CCCCCCCC)C(=O)CCCC(=O)OCC(COC(=O)CCCC(=O)N(CCCCCCCC)CCCCCCCC)(COC(=O)CCCC(=O)N(CCCCCCCC)CCCCCCCC)NC(=O)CCN1CCCCC1 [TxT-5-5A16, 2-(((5-(dioctylamino)-5-oxopentanoyl)oxy)methyl)-2-(3-(piperidin-1-yl)propanamido)propane-1,3-diyl bis(5-(dioctylamino)-5-oxopentanoate)]
Effect of DSPC content on Fluc activity in the spleen, kidney, lung, and heart (various tissues): no effect of DSPC content on Fluc activity was observed
